Measurements from patent US11083714B2, “Selective anti-cancer agent effective for prevention and treatment” (Molecular International Research, Inc., priority 2018, dated 2021).

Key:
[1] = system: AM-38; experiment: Glioblastoma cell viability and proliferation assay (ATP), AM-38; assay type: cell-based; conditions: AM38, 72 hr
Experimental: FIG. 9. Glioblastoma in vitro cell viability and proliferation assay after treatment with de-ethylflavopereirine. Glioblastoma cell lines U-87MG, DBTRG-05MG, A172, and AM-38 were tested. Temozolomide, an oral chemotherapy drug known to treat some brain cancers, was used as a control. The concentrations of temozolomide (circles) or compound 13-9-1 (squares) used were 3 nM, 10 nM, 30 nM, 100 nM, 1 uM, 3 uM, 10 uM, and 30 uM. Each of the cell lines was treated with de-ethylflavopereirine for 72 hr before measuring cytotoxicity and inhibition of cell proliferation. Number of viable cells in culture based on quantitation of ATP. IC50 was determined as indicated below each graph.
The dose-response curves for the anti-brain cancer drug temozolomide are shown for comparison.

[2] = system: LnCap; experiment: Cell Proliferation (anti-cancer), LnCap; assay type: cell-based, human
Experimental: The primary goal of synthesizing de-ethylflavopereirine (compound 13-9-1) was to generate a different compound that still retains the anti-cancer cell activity of flavopereirine (compound 13-7-2). Comparison of the effects of the two compounds on proliferation of a variety of cancer cells confirmed that this goal was achieved. For example, the effect of de-ethylflavopereirine on two human breast cancer cell lines and two human prostate cancer cell lines were analyzed.

[3] = system: PANC-1 cells; experiment: Tumor formation and growth after inoculation of pretreated PANC-1 cells (FIG. 26); assay type: in vivo, mice
Experimental: FIG. 26. Effect of de-ethylflavopereirine on pancreatic cancer formation and growth. […] In the control group (top line of left graph), 86.67% (13/15) of the untreated mice formed tumors. Compound 13-9-1 (10 μM) decreased the rate to 80% (4/5); there was no effect on the time of tumor formation (bottom line of left graph). […] In the control group (top line of left graph), 80% (12/15) of the untreated mice formed tumors. Compound 13-9-1 (10 μM) decreased the tumor formation rate to 60% (3/5); this indicated reduction in tumor formation initiated by pancreatic cancer stem cells (bottom line of left graph). […] In FIG. 26C, after 2×10^4 PANC-1 cells were inoculated, 20% of the mice formed tumors in both the control group (3/15) and the treated group (1/5) at 38 days of observation.
In vivo, cancer stem cells are the primary source of tumor formation and growth. Thus, the rates of tumor formation and growth are indicators of cancer stem cell activity. When animals are inoculated with limited numbers of cancer cells, rates of tumor formation and growth can be accurately measured. It can then be determined whether a prospective agent slows the formation and growth rates of tumors, which is an indication of whether it acts against cancer stem cells. PANC-1 cancer cells were grown in suspension and pretreated with de-ethylflavopereirine at 10 μM concentration before inoculation into mice. As a negative control, PANC-1 cancer cells were not pretreated with the compound. Following inoculation, the rates of tumor formation and growth were measured. • 1) After 10^6 PANC-1 cells were inoculated, tumors formed in 87% of the mice in the control group and 80% of the mice in the treated group. […] De-ethylflavopereirine reduced tumor formation rate to 60%, indicating inhibition of pancreatic cancer stem cells. […] De-Ethylflavopereirine Suppresses PANC-1 Tumor Formation In Vivo: Anti-Cancer Stem Cell Activity

[4] = system: PANC-1 cells; experiment: CD24/CD44/EpCam triple positive cells by flow cytometry; assay type: cell-based; conditions: 2.5, 5, 10 μM
Experimental: FIG. 24. De-ethylflavopereirine decreased the percentage of cancer stem cells in a pancreatic cancer cell population (24 hours). The panels show CD44 (PE-Cy7) positive and EpCam (APC) positive cells in the CD24 (PE) gate at concentrations of 0 μM (upper left), 2.5 μM (upper right), 5 μM (lower left), and 10 μM (lower right) de-ethylflavopereirine after 24 hr. “Q1”=CD24^+/CD44^+, “Triple+”=CD24^+/CD44^+/EpCam^+, “Q3”=CD24^+, and “Q4”=CD24^+/EpCam^+.
FIG. 25. De-ethylflavopereirine decreased the percentage of cancer stem cells in a pancreatic cancer cell population (48 hours). The panels show CD44 (PE-Cy7) positive and EpCam (APC) positive cells in the CD24 (PE) gate at concentrations of 0 μM (upper left), 2.5 μM (upper right), 5 μM (lower left), and 10 μM (lower right) de-ethylflavopereirine after 48 hr. “Q1”=CD24^+/CD44^+, “Triple+”=CD24^+/CD44^+/EpCam^+, “Q3”=CD24^+, and “Q4”=CD24^+/EpCam^+.
Cancer stem cells can be identified by specific cell-surface markers. A combination of three markers CD24, CD44, and EpCam is used for detection of pancreatic cancer stem cells. These markers can be labeled by different fluorophores and detected simultaneously by flow cytometry. Triple positive cells (i.e., cells that express all three markers) are regarded as pancreatic cancer stem cells. De-ethylflavopereirine reduced the percentage of pancreatic cancer stem cells in pancreatic cancer cell populations. PANC-1 cells were treated with 2.5 μM, 5.0 μM, and 10 μM concentrations of the compound for 24 hours or 48 hours. Triple positive cells were identified in quadrant Q2 (“Triple+”) of the flow cytometry output.

[5] = 1×10^6 PANC-1 cells pretreated at 10 μM
[6] = 2×10^5 PANC-1 cells pretreated at 10 μM

For `c1ccc2c(c1)[nH]c1c2cc[n+]2ccccc12` [Compound 13-9-1, 12H-indolo[2,3-a]quinolizin-5-ium], the “IC50 relative to IC50 of temozolomide” value [1] was 0.66 times, the “Growth Inhibition” value [2] was “Yes” and the IC50 ([2]; Homo sapiens, after any period of treatment, read-out: Minimum Dose (IC50) needed to decrease growth 50% or greater versus control) was 5 µM. The “growth of tumors formed” value [3, 5] was “reduced the growth of tumors”, the “time of tumor formation” value [3, 5] was “no effect” and the “tumor formation rate (mice that formed tumors)” value (shortened to “tumor formation rate”) [3, 5] was 80%. For the same compound, the “growth of tumors formed” value ([3]; 1×10^6 PANC-1 cells pretreated at 10 μM, listed as De-ethylflavopereirine) was “significantly inhibited the growth”, the “growth of tumors formed” value ([3]; 2×10^4 PANC-1 cells pretreated at 10 μM) was “not significantly different” and the “tumor formation rate” value ([3]; 2×10^4 PANC-1 cells pretreated at 10 μM, 38 days) was 20%. For the same compound, the “growth of tumors formed” value [3, 6] was “significantly reduced tumor growth”, the “tumor formation rate” value [3, 6] was 60% and the “growth of tumors formed” value ([3]; 2×10^5 PANC-1 cells pretreated at 10 μM, listed as De-ethylflavopereirine) was “slowed the growth rate”. For the same compound, the “CD24+/CD44+/EpCam+ (triple positive) cell population” value (from here on “CD24+/CD44+/EpCam+”) ([4]; 24 hr, listed as De-ethylflavopereirine) was “Reduction”, the “CD24+/CD44+/EpCam+” value ([4]; 24 hr, listed as de-ethylflavopereirine) was “reduced the CD24^+/CD44^+/EpCam^+ cell population” and the “CD24+/CD44+/EpCam+” value ([4]; 48 hr) was “reduced the CD24^+/CD44^+/EpCam^+ cell population”.
